Laboratory results published in ChEMBL document CHEMBL4190187, “Discovery of pyrazolopyrimidine derivatives as novel inhibitors of ataxia telangiectasia and rad3 related protein (ATR)” (Bioorg Med Chem Lett, 2017).

Assays:
[1] = species on record: Mus musculus; test: Inhibition of recombinant full-length mouse p110a/recombinant p65a (1 to 571 residues) at 1 uM using phosphatidylinositol 4,5-bisphosphate as substrate after 40 mins in presence of [gamma-33P]ATP by scintillation counting method
[2] = target: Beta-adrenergic receptor kinase 1 (Homo sapiens) (UniProt P25098); test: Inhibition of recombinant full-length human GRK2 at 1 uM using casein as substrate after 40 mins in presence of [gamma-33P]ATP by scintillation counting method
[3] = target: Tau-tubulin kinase 1 (Homo sapiens) (UniProt Q5TCY1); test: Inhibition of recombinant human TTBK1 (1 to 479 residues) at 1 uM using casein as substrate after 40 mins in presence of [gamma-33P]ATP by scintillation counting method
[4] = target: Mitogen-activated protein kinase 1 (Homo sapiens) (UniProt P28482); test: Inhibition of recombinant full-length human MAPK2 at 1 uM using myelin basic protein as substrate after 40 mins in presence of [gamma-33P]ATP by scintillation counting method
Sequence of Mitogen-activated protein kinase 1 (Homo sapiens) (P28482 whole entry, the tested form may be a part): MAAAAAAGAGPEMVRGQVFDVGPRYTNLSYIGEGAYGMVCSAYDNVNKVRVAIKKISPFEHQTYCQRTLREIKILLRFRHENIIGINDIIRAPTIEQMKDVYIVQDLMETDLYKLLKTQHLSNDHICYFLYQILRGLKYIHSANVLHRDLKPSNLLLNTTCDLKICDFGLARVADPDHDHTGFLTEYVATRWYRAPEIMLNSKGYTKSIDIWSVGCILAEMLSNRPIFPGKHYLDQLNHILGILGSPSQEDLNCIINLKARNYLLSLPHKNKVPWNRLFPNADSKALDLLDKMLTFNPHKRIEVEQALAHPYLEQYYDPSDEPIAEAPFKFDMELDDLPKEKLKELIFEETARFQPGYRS

[5] = target: Homeodomain-interacting protein kinase 3 (Homo sapiens) (UniProt Q9H422); test: Inhibition of recombinant human HIPK3 (161 to 562 residues) at 1 uM using myelin basic protein as substrate after 40 mins in presence of [gamma-33P]ATP by scintillation counting method
[6] = target: Mitogen-activated protein kinase 1 (Homo sapiens) (UniProt P28482); test: Inhibition of recombinant full-length human MAPK1 at 1 uM using myelin basic protein as substrate after 40 mins in presence of [gamma-33P]ATP by scintillation counting method
[7] = target: MAP/microtubule affinity-regulating kinase 4 (Homo sapiens) (UniProt Q96L34); test: Inhibition of recombinant full-length human MARK4 at 1 uM using KKKVSRSGLYRSPSMPENLNRPR as substrate after 40 mins in presence of [gamma-33P]ATP by scintillation counting method
[8] = target: Serine/threonine-protein kinase ULK3 (Homo sapiens) (UniProt Q6PHR2); test: Inhibition of recombinant full-length human ULK3 at 1 uM using casein as substrate after 40 mins in presence of [gamma-33P]ATP by scintillation counting method
Sequence of Serine/threonine-protein kinase ULK3 (Homo sapiens) (Q6PHR2 whole entry, the tested form may be a part): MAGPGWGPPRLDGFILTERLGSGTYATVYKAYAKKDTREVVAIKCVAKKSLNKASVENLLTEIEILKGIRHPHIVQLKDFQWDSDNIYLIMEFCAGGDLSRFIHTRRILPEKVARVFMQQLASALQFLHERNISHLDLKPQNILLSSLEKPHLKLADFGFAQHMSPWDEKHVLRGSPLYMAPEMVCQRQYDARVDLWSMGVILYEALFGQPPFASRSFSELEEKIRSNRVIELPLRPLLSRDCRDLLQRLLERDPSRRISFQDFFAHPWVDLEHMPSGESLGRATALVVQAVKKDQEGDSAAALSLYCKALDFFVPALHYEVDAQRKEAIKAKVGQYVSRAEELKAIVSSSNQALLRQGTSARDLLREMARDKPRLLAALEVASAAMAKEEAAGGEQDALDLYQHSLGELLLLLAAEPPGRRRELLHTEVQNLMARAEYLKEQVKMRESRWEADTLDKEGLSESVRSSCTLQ

[9] = target: CDK4/Cyclin D3 (Homo sapiens) (UniProt P11802+P30281); test: Inhibition of recombinant full-length human CDK4/Cyclin D3 at 1 uM using Rb fragment as substrate after 40 mins in presence of [gamma-33P]ATP by scintillation counting method; format: protein-complex assay
[10] = target: Glycogen synthase kinase-3 alpha (Homo sapiens) (UniProt P49840); test: Inhibition of recombinant human GSK3alpha (2 to end residues) at 1 uM using YRRAAVPPSPSLSRHSSPHQS(p)EDEEE (phospho GS2 peptide) as substrate after 40 mins in presence of [gamma-33P]ATP by scintillation counting method
[11] = target: PI3K p110 beta/p85 alpha (Mus musculus) (UniProt P26450+Q8BTI9); test: Inhibition of recombinant full-length mouse p110b/p85a at 1 uM using phosphatidylinositol 4,5-bisphosphate as substrate after 40 mins in presence of [gamma-33P]ATP by scintillation counting method; format: protein-complex assay
[12] = target: Mitogen-activated protein kinase kinase kinase kinase 5 (Homo sapiens) (UniProt Q9Y4K4); test: Inhibition of recombinant full-length human MAP4K5 at 1 uM using myelin basic protein as substrate after 40 mins in presence of [gamma-33P]ATP by scintillation counting method
[13] = target: Serine/threonine-protein kinase 17A (Homo sapiens) (UniProt Q9UEE5); test: Inhibition of recombinant full-length human DRAK1 at 1 uM using KKLNRTLSFAEPG as substrate after 40 mins in presence of [gamma-33P]ATP by scintillation counting method
[14] = target: Insulin receptor-related protein (Homo sapiens) (UniProt P14616); test: Inhibition of recombinant human IRR (943 to 1266 residues) at 1 uM using myelin basic protein as substrate after 40 mins in presence of [gamma-33P]ATP by scintillation counting method
Sequence of Insulin receptor-related protein (Homo sapiens) (P14616 27-742 limits assumed): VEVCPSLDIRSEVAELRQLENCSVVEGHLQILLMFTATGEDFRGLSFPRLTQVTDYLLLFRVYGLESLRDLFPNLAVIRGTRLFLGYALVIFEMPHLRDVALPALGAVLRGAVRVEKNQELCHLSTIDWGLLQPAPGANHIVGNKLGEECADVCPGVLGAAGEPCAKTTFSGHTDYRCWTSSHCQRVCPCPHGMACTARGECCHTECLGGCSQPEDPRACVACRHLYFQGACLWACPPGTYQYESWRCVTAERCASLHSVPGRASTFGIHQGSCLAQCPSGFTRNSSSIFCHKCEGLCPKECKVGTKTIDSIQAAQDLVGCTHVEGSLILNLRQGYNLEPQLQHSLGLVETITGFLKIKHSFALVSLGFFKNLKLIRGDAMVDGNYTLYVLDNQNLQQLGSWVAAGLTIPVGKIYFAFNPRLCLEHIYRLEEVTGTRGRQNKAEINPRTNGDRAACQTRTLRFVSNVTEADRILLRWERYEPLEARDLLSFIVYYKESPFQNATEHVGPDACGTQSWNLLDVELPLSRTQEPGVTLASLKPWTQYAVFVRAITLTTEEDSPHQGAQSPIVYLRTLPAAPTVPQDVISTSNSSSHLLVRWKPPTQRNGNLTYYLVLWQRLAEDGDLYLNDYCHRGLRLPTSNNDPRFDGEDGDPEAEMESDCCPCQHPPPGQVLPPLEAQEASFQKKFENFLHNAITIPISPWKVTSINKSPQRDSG
Sequence of Insulin receptor-related protein (Homo sapiens) (P14616 747-1297 limits assumed): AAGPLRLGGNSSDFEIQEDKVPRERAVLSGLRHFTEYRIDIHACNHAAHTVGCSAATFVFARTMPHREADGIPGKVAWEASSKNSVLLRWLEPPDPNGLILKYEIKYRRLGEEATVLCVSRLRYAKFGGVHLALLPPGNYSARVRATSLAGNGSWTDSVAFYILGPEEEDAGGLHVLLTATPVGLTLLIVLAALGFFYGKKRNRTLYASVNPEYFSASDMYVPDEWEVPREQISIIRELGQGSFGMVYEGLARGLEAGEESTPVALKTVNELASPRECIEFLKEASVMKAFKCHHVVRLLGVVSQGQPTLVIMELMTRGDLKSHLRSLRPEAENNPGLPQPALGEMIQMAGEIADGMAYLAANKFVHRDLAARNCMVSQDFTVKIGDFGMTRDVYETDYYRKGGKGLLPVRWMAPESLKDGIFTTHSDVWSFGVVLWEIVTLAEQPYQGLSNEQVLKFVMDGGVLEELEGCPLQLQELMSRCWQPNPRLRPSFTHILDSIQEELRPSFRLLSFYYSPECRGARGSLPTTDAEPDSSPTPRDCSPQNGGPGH

[15] = target: Serine/threonine-protein kinase TAO3 (Homo sapiens) (UniProt Q9H2K8); test: Inhibition of recombinant human TAO3 (1 to 411 residues) at 1 uM using myelin basic protein as substrate after 40 mins in presence of [gamma-33P]ATP by scintillation counting method
Sequence of Serine/threonine-protein kinase TAO3 (Homo sapiens) (Q9H2K8 whole entry, the tested form may be a part): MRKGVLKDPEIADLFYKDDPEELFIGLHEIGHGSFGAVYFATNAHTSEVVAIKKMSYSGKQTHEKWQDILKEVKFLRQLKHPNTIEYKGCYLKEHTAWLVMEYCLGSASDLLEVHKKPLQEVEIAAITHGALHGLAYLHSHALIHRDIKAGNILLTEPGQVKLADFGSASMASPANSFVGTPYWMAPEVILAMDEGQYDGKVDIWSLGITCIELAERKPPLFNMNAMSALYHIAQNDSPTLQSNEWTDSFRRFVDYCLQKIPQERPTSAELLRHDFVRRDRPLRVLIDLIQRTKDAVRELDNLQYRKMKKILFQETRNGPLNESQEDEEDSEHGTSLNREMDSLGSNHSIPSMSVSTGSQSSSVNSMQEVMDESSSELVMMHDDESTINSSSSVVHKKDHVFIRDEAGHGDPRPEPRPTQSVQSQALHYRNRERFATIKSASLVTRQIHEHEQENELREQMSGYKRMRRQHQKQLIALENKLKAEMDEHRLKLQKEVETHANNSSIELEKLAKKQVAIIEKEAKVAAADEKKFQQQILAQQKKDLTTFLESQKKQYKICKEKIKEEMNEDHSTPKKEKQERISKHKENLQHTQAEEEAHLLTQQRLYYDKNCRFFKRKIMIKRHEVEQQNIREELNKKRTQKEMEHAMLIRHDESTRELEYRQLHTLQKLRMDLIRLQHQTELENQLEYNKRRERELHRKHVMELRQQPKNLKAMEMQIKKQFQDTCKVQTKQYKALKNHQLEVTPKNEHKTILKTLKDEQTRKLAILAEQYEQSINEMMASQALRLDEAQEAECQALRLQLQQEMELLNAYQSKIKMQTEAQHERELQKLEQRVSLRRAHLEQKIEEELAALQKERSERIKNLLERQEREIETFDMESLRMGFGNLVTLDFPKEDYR

[16] = target: Serine/threonine-protein kinase PAK 5 (Homo sapiens) (UniProt Q9P286); test: Inhibition of recombinant human PAK5 (425 to end residues) at 1 uM using RRRLSFAEPG as substrate after 40 mins in presence of [gamma-33P]ATP by scintillation counting method
Sequence of Serine/threonine-protein kinase PAK 5 (Homo sapiens) (Q9P286 whole entry, looked up, the tested form may be a part): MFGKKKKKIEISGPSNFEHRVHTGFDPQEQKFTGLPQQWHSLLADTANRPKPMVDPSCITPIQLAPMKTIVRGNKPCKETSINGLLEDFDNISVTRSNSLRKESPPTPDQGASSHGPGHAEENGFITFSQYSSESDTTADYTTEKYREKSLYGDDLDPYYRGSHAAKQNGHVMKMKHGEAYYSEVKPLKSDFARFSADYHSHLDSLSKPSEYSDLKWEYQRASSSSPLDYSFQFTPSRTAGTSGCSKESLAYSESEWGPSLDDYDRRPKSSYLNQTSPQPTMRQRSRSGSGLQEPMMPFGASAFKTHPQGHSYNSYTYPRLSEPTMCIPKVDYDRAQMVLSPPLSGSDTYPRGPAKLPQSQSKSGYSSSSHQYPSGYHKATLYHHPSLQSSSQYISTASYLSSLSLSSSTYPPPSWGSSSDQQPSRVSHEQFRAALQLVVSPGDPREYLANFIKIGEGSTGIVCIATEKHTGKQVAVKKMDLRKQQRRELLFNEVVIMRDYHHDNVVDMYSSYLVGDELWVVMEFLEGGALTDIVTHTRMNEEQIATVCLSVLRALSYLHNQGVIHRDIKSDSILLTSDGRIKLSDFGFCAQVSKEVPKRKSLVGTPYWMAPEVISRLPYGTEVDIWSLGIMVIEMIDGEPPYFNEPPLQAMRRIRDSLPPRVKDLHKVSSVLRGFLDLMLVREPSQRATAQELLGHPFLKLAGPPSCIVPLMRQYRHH

[17] = target: Insulin receptor (Homo sapiens) (UniProt P06213); test: Inhibition of recombinant human IR (1005 to 1310 residues) at 1 uM using KKSRGDYMTMQIG as substrate after 40 mins in presence of [gamma-33P]ATP by scintillation counting method
[18] = target: Tyrosine-protein kinase receptor TYRO3 (Homo sapiens) (UniProt Q06418); test: Inhibition of recombinant human Rse (451 to end residues) at 1 uM using KVEKIGEGTYGVVYK as substrate after 40 mins in presence of [gamma-33P]ATP by scintillation counting method
Sequence of Tyrosine-protein kinase receptor TYRO3 (Homo sapiens) (Q06418 whole entry): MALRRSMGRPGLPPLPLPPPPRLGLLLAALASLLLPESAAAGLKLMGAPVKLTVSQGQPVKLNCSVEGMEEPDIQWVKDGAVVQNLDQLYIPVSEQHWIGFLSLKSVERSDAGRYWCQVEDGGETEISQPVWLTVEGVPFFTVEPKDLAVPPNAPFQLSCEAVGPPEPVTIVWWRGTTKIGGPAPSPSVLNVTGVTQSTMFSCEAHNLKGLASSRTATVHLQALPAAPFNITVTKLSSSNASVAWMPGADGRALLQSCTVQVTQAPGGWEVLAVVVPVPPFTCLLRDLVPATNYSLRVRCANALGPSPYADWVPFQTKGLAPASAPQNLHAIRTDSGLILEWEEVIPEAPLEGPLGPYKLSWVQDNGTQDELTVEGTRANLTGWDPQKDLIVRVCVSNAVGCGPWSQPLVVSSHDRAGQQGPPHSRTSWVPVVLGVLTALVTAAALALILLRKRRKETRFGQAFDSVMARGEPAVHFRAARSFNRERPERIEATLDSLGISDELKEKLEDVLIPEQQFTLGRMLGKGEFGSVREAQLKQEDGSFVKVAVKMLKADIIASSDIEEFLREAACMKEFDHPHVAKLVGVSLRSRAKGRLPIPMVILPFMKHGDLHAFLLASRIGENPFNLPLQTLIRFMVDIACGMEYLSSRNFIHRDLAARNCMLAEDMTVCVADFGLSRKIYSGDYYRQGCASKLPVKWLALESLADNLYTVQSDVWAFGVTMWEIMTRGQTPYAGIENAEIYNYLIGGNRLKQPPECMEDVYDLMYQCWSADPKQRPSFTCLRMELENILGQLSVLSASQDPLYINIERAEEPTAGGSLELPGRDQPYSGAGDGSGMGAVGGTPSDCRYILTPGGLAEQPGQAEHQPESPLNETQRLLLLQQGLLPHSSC

[19] = tested on: Hepatocyte growth factor receptor (Homo sapiens), P08581 [Y1248H]; test: Inhibition of recombinant human Met Y1248H mutant (974 to end residues) at 1 uM using KKKGQEEEYVFIE as substrate after 40 mins in presence of [gamma-33P]ATP by scintillation counting method
[20] = tested on: Proto-oncogene tyrosine-protein kinase receptor Ret (Homo sapiens), P07949 [V804L]; test: Inhibition of recombinant human RET V804L mutant (658 to end residues) at 1 uM using KKKVSRSGLYRSPSMPENLNRPR as substrate after 40 mins in presence of [gamma-33P]ATP by scintillation counting method
[21] = target: Rhodopsin kinase GRK7 (Homo sapiens) (UniProt Q8WTQ7); test: Inhibition of recombinant full-length human GRK7 at 1 uM using casein as substrate after 40 mins in presence of [gamma-33P]ATP by scintillation counting method
[22] = target: Casein kinase II subunit alpha (Homo sapiens) (UniProt P68400); test: Inhibition of recombinant full-length human CK2 at 1 uM using RRRDDDSDDD as substrate after 40 mins in presence of [gamma-33P]ATP by scintillation counting method
Sequence of Casein kinase II subunit alpha (Homo sapiens) (P68400 whole entry, looked up): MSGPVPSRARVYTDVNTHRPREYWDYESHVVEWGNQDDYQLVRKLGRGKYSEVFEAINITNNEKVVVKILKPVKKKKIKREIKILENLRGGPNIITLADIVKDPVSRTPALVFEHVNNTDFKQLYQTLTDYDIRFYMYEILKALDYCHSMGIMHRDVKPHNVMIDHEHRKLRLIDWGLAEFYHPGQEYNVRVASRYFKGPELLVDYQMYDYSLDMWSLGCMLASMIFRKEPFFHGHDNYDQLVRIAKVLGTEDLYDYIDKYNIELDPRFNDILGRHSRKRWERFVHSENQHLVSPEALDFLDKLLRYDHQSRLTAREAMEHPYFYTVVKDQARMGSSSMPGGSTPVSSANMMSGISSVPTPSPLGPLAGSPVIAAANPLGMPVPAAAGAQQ

[23] = tested on: Platelet-derived growth factor receptor alpha (Homo sapiens), P16234 [V561D]; test: Inhibition of recombinant human PDGFRalpha V561D mutant (550 to end residues) at 1 uM using GGMEDIYFEFMGGKKK as substrate after 40 mins in presence of [gamma-33P]ATP by scintillation counting method
[24] = target: Phosphatidylinositol 4-phosphate 5-kinase type-1 alpha (Homo sapiens) (UniProt Q99755); test: Inhibition of recombinant full-length human PIP5K1alpha at 1 uM using phosphatidylinositol 4-phosphate/phosphatidylserine as substrate after 40 mins in presence of [gamma-33P]ATP by scintillation counting method

CS(=O)(=O)c1ccc(-n2nc(-c3cnc4[nH]ccc4c3)c3c(N)ncnc32)cc1
inhibition [1]: 7%
inhibition [2]: 5%
inhibition [3]: 11%
inhibition [4]: 1%
inhibition [5]: 4%
inhibition [6]: 2%
inhibition [7]: -3%
inhibition [8]: 16%
inhibition [9]: -9%
inhibition [10]: 17%
inhibition [11]: 0%
inhibition [12]: 1%
inhibition [13]: 31%
inhibition [14]: -7%
inhibition [15]: 5%
inhibition [16]: 20%
inhibition [17]: -7%
inhibition [18]: 4%
inhibition [19]: 4%
inhibition [20]: 20%
inhibition [21]: -3%
inhibition [22]: 2%
inhibition [23]: 66%
inhibition [24]: 2%
